{"source": "PubChem BioAssay AID1963825", "about": "(Molecular Pharmacology Branch, DTP, NCI, 2024);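 further: luminescence signal used as a surrogate for viable cells; spheroids exposed to drugs for seven days before readout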", "experiment": "Anticancer human tumor 997537-175-T-J1-PDC patient-derived colon adenocarcinoma cell line growth inhibition [POLQ]", "details": "997537-175-T-J1-PDC complex spheroid viability, combination with POLQ inhibitors; for IC50: curve of first compound; for viability, T/C: stronger effect = lower value", "protocol": "Multicellular complex tumor spheroid response to Polymerase (POL) inhibitors (novobiocin, ART-558, RP6685) in combination with a variety of drugs and investigational agents in selected tumor cell lines\nThe POL inhibitors (novobiocin, ART-558, and RP6685) were evaluated both individually and in combination with standard of care and investigational anticancer small molecules within a complex spheroid model of solid tumors. . Complex spheroids include a stromal component modeled by human endothelial cells (HUVEC) and fibroblasts modeled by human mesenchymal stem cells (MSCs). The concentration ranges selected for each drug and investigational agent were based upon clinically achievable concentrations if the clinical Cmax of the agent was known.\nCompounds. The drugs and investigational agents: novobiocin (NSC847541), ART-558 (NSC835418), RP-6685 (NSC848927), peposertib (NSC802822), ceralasertib (NSC780249), elimusertib (NSC800525), camonsertib (NSC841442), AZD-1390 (NSC803789), olaparib (NSC753686), talazoparib (NSC767125), rucaparib (NSC756644), sotorasib (NSC818433), MRTX-1133 (NSC836407), SN-38 (NSC673596), topotecan (NSC609699), epotoside (NSC141540), doxorubicin (NSC123127), gemcitabine (NSC613327), 5-fluorouracil (NSC19893), paclitaxel (NSC125973), vemurafenib (NSC761431), MSA-2 (NSC828583), SN-011 (NSC837082), adavosertib (NSC754352), prexasertib (NSC758257), carboplatin (NSC241240) and oxaliplatin (NSC266046), were obtained from the National Cancer Institute (NCI) Developmental Therapeutics Program Chemical Repository (21). The FDA-approved anticancer drug set is available from the Developmental Therapeutics Program at https://dtp.cancer.gov/organization/dscb/obtaining/. […] The stock solutions were prepared in dimethyl sulfoxide (DMSO, Sigma-Aldrich, St. Louis, MO, cat. D2650), except for the platinum compounds which were prepared in saline (Quality Biological, Gaithersburg, MD, cat. 114-055-101), at 800-fold the tested concentration and stored at -70 degrees C prior to their use. All drugs and investigational agents were tested over a range starting from a high concentration at or near the clinical Cmax and decreasing in half-log increments. If the clinical Cmax for an agent had not been determined, the highest concentration tested was 10 microM, except for SN-38, which was tested at a high concentration of 1 microM.\nCell Culture. All cells were maintained in an incubator at 37 degrees C and 5% CO2 with 95% humidity. The PDC lines were cultured according to standard operating procedures established by the NCI PDMR (https://pdmr.cancer.gov). Table 3 of the manuscript, lists the cell lines along with the number of the three cell types plated to form the mct-spheroids and media for tumor cell growth. After thawing, all PDC lines, except 997537-175-T-J1-PDC and 415267-285-R-J2-PDC, were cultured in Matrigel-coated flasks prepared with a working solution of 1X Ham's F-12 nutrient mix, without supplementation (Thermo Fisher Scientific, cat. 11765054), 100 U/mL penicillin-streptomycin (Thermo Fisher Scientific, cat. 15140122), and 2.5% Matrigel (Corning Inc., Corning, NY, cat. 354248) for the first three passages. The two PDC lines 997537-175-T-J1-PDC and 415267-285-R-J2-PDC were cultured on uncoated flasks. The 857933-349-R-J2-PDC line was cultured in 6C/Colon 1B media containing advanced DMEM/F-12 (Thermo Fisher Scientific, cat. 12634028), 10 mM HEPES (Thermo Fisher Scientific, cat. 15630080), 1X GlutaMAX supplement (Thermo Fisher Scientific, cat. 35050061), 0.1 mg/mL primocin (InvivoGen, San Diego, CA, cat. ant-pm-2), 10% defined fetal bovine serum, heat inactivated (HyClone Laboratories Inc., Logan, UT, cat. SH30070.03HI), 50% L-WRN conditioned media (ATCC, cat. CRL-3276), 1.25 mM N-Acetyl-L-cysteine (Sigma-Aldrich, cat. A9165), 10 mM nicotinamide (Sigma-Aldrich, cat. N0636), 1X B-27 supplement (Thermo Fisher Scientific, cat. 17504044), 1X N-2 supplement (Thermo Fisher Scientific, cat. […]"}
{"smiles": "CCc1c2c(nc3ccc(O)cc13)-c1cc3c(c(=O)n1C2)COC(=O)[C@]3(O)CC", "note": "+ Cc1cccc(N(C)C(=O)C2C(O)CCN2c2nc(C)cc(C(F)(F)F)c2C#N)c1", "values": [{"measurement": "IC50", "setting": "second compound 0.0316 µM", "result": 19.7, "unit": "nM"}, {"measurement": "IC50", "setting": "second compound 0.1 µM", "result": 18.1, "unit": "nM"}, {"measurement": "IC50", "setting": "second compound 0.316 µM", "result": 21.7, "unit": "nM"}, {"measurement": "IC50", "setting": "second compound 1 µM", "result": 15.3, "unit": "nM"}, {"measurement": "IC50", "setting": "second compound 3.16 µM", "result": 17.3, "unit": "nM"}, {"measurement": "IC50", "setting": "second compound 10 µM", "result": 18.9, "unit": "nM"}, {"measurement": "viability, T/C", "setting": "second compound 0.0316 µM, first compound 0.00316 µM", "result": 81.5, "unit": "%"}, {"measurement": "viability, T/C", "setting": "second compound 0.0316 µM, first compound 0.01 µM", "result": 68.8, "unit": "%"}, {"measurement": "viability, T/C", "setting": "second compound 0.0316 µM, first compound 0.0316 µM", "result": 36.7, "unit": "%"}, {"measurement": "viability, T/C", "setting": "second compound 0.0316 µM, first compound 0.1 µM", "result": 13.7, "unit": "%"}, {"measurement": "viability, T/C", "setting": "second compound 0.0316 µM, first compound 0.316 µM", "result": 5.85, "unit": "%"}, {"measurement": "viability, T/C", "setting": "second compound 0.0316 µM, first compound 1 µM", "result": 4.36, "unit": "%"}, {"measurement": "viability, T/C", "setting": "second compound 0.1 µM, first compound 0.00316 µM", "result": 86.2, "unit": "%"}, {"measurement": "viability, T/C", "setting": "second compound 0.1 µM, first compound 0.01 µM", "result": 70.1, "unit": "%"}, {"measurement": "viability, T/C", "setting": "second compound 0.1 µM, first compound 0.0316 µM", "result": 30.7, "unit": "%"}, {"measurement": "viability, T/C", "setting": "second compound 0.1 µM, first compound 0.1 µM", "result": 11.7, "unit": "%"}, {"measurement": "viability, T/C", "setting": "second compound 0.1 µM, first compound 0.316 µM", "result": 6.03, "unit": "%"}, {"measurement": "viability, T/C", "setting": "second compound 0.1 µM, first compound 1 µM", "result": 4.13, "unit": "%"}, {"measurement": "viability, T/C", "setting": "second compound 0.316 µM, first compound 0.00316 µM", "result": 82.7, "unit": "%"}, {"measurement": "viability, T/C", "setting": "second compound 0.316 µM, first compound 0.01 µM", "result": 77.2, "unit": "%"}, {"measurement": "viability, T/C", "setting": "second compound 0.316 µM, first compound 0.0316 µM", "result": 35.8, "unit": "%"}, {"measurement": "viability, T/C", "setting": "second compound 0.316 µM, first compound 0.1 µM", "result": 15.8, "unit": "%"}, {"measurement": "viability, T/C", "setting": "second compound 0.316 µM, first compound 0.316 µM", "result": 5.26, "unit": "%"}, {"measurement": "viability, T/C", "setting": "second compound 0.316 µM, first compound 1 µM", "result": 5.26, "unit": "%"}, {"measurement": "viability, T/C", "setting": "second compound 1 µM, first compound 0.00316 µM", "result": 79.8, "unit": "%"}, {"measurement": "viability, T/C", "setting": "second compound 1 µM, first compound 0.01 µM", "result": 59.5, "unit": "%"}, {"measurement": "viability, T/C", "setting": "second compound 1 µM, first compound 0.0316 µM", "result": 33.5, "unit": "%"}, {"measurement": "viability, T/C", "setting": "second compound 1 µM, first compound 0.1 µM", "result": 14.4, "unit": "%"}, {"measurement": "viability, T/C", "setting": "second compound 1 µM, first compound 0.316 µM", "result": 5.49, "unit": "%"}, {"measurement": "viability, T/C", "setting": "second compound 1 µM, first compound 1 µM", "result": 5.83, "unit": "%"}, {"measurement": "viability, T/C", "setting": "second compound 3.16 µM, first compound 0.00316 µM", "result": 91.5, "unit": "%"}, {"measurement": "viability, T/C", "setting": "second compound 3.16 µM, first compound 0.01 µM", "result": 65.3, "unit": "%"}, {"measurement": "viability, T/C", "setting": "second compound 3.16 µM, first compound 0.0316 µM", "result": 33, "unit": "%"}, {"measurement": "viability, T/C", "setting": "second compound 3.16 µM, first compound 0.1 µM", "result": 14.8, "unit": "%"}, {"measurement": "viability, T/C", "setting": "second compound 3.16 µM, first compound 0.316 µM", "result": 6.21, "unit": "%"}, {"measurement": "viability, T/C", "setting": "second compound 3.16 µM, first compound 1 µM", "result": 5.14, "unit": "%"}, {"measurement": "viability, T/C", "setting": "second compound 10 µM, first compound 0.00316 µM", "result": 81.4, "unit": "%"}, {"measurement": "viability, T/C", "setting": "second compound 10 µM, first compound 0.01 µM", "result": 63, "unit": "%"}, {"measurement": "viability, T/C", "setting": "second compound 10 µM, first compound 0.0316 µM", "result": 39.5, "unit": "%"}, {"measurement": "viability, T/C", "setting": "second compound 10 µM, first compound 0.1 µM", "result": 18.7, "unit": "%"}, {"measurement": "viability, T/C", "setting": "second compound 10 µM, first compound 0.316 µM", "result": 5.71, "unit": "%"}, {"measurement": "viability, T/C", "setting": "second compound 10 µM, first compound 1 µM", "result": 7.45, "unit": "%"}]}
